From US8691576B2, “Regeneration and mass propagation of Jatropha curcas through somatic embryogenesis” (Joil (S) Pte Ltd., priority 2008, dated 2014)

Assays:
Type in all cases: cell-based
[1] = test system: Jatropha curcas somatic embryos; assay: Effect of abscisic acid in maturation media on germination; conditions: ABA 0-5 mg/l in DGA or EGA media or variants
Protocol: To further explore methods to improve germination, abscisic acid (ABA) between 0-5 mg/l was supplemented in DGA or EGA media or their variants with 10-30 g/l sucrose and 20-60 g/1 maltose. […] Examples of the effects are shown in Table 10, where 20-30 TISEs were transferred to various media listed below. Except in ¼ strength MS medium, few somatic embryos germinated without GA3. […] Reducing the strength of basal salts was likewise beneficial to germination of somatic embryos.

[2] = test system: Jatropha curcas somatic embryo explants; assay: Re-initiation of somatic embryogenesis from matured somatic embryos on solid DGA and derivative media; conditions: for production of secondary somatic embryos and embryogenic calli: supplementation in solid DGA-type medium
Protocol: Somatic embryos were matured in 2,4-D-free liquid MS medium and hypocotyl-root apex tissues were excised from somatic embryos larger than 0.5 cm. Those smaller than 0.5 cm were cultured intact. The explants were cultured in various DGA or its derivative solid medium. […] 2,4-D and kinetin could be added as optional supplements (not shown).

[3] = test system: Jatropha curcas somatic embryos (TISEs); assay: Effect of GA3 on germination of somatic embryos; conditions: for Hypocotyl Extension % / Root Growth % / Viable Germination SE % / Hypocotyl Extension SE Count / Root Growth SE Count / Viable Germination SE Count: three weeks; for Hypocotyl Extension SE Count / Root Growth SE Count / Viable Germination SE Count: 30 explants;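 as to all read-outs here: groups of 20–30 TISEs per medium were moved onto each medium and scored for germination traits, with GA3-free media as the comparison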
[4] = test system: Jatropha curcas immature embryo and endosperm explants; assay: Effect of kinetin on TISE and TIISE formation; conditions: for TIISE (%) >5 SE / TIISE (%) >10 SE / TIISE (%) Total / TISE (%): 5 mg/l 2,4-D, 6 weeks, then DGA 4 weeks
Protocol: Developing fruits were surface-sterilized and dissected to yield 120 immature embryos that were shorter than 1.5 cm in length. After cutting into halves, the explants were cultured in media with a series of kinetin concentrations. On the 5th day, the endosperm tissues were separated from the embryos, further reduced into small pieces of about 0.25 cm^2 and transferred to the fresh medium with the same kinetin concentrations. After one subcultures (6 weeks in total), the calli were transferred to DGA medium and cultured for one month. Twenty immature embryos were used in each treatment. It was observed that TISEs were almost exclusively formed on endosperm tissues where the embryos had been detached after three's culture.

[5] = test system: Jatropha curcas embryogenic calli; assay: Embryogenic liquid suspension culture; conditions: KNO3 increased to 1.9 g/l to 3.8 g/l
Protocol: FIGS. 5A-5D show embryogenic liquid suspension culture. About 50 mg embryogenic calli produced in solid DGA medium were inoculated in 20 ml modified DGA liquid media. Embryos larger than 2 mm were removed before inoculation. Subculture was done every two weeks. Photos were taken after 2 subcultures. FIG. 5A: 20 g/l sucrose, 1 g/l glutamine, 0.5 g/l asparagine, no 2,4-D. FIG. 5B: 20 g/l sucrose, 1 g/l glutamine, 0.5 g/l asparagine, 0.2 g/1 2,4-D. FIG. 5C: 30 g/l sucrose, 1 g/l glutamine, 0.5 g/l asparagine, 0.2 g/1 2,4-D. FIG. 5D: 20 g/l sucrose, 1 g/l glutamine, 0.5 g/l asparagine, 1 g/1 2,4-D. Arrow indicates the non-embryogenic ball-shaped calli. Scale bar represents 1 cm.
Liquid cultures were performed in 65 mm plastic cylinder containers or 250 ml glass conical flasks that were placed in shakers set at 80 rpm, 28° C. constant temperature and 16-8 hours day-light cycles.
Effects 2,4-D and carbon source on establishment of somatic embryogenic liquid suspension culture was investigated. […] At sucrose level ranging from 10-30 g/l, continued culture lead to maturation of the somatic embryo with no new initiation of secondary embryos (FIG. 5A). The somatic embryos thus produced share good synchrony and are excellent materials for re-induction of TIISEs (Refer to Example 13). […] The suspension cultures were stable for months if large embryos were removed. Further, sucrose concentration needs to be reduced below about 20 g/l (compare FIGS. 5B and 5C).

[6] = Full strength MS salt and B5 vitamins, GA3 2 mg/L
[7] = Full strength MS salt and B5 vitamins, GA3 3 mg/L
[8] = ¼ Strength MS salt and B5 vitamins, GA3 2 mg/L
[9] = ¼ Strength MS salt and B5 vitamins, GA3 3 mg/L
[10] = ½ Strength MS salt and B5 vitamins, GA3 2 mg/L
[11] = ½ Strength MS salt and B5 vitamins, GA3 3 mg/L

## CC1=CC(=O)CC(C)(C)[C@@]1(O)/C=C/C(C)=C\C(=O)O [abscisic acid]
[1]
  plantlet abnormality: plantlet abnormality was apparently increased
[1]; germination in MS medium
  improvement of germination: Improvement of germination in MS medium was not observed

## NC(=O)CC[C@H](N)C(=O)O [glutamine]
[2]
  production of secondary somatic embryos and embryogenic calli: greatly improved production of secondary somatic embryos and embryogenenic calli

## NC(=O)C[C@H](N)C(=O)O [asparagine]
[2]
  production of secondary somatic embryos and embryogenic calli: greatly improved production of secondary somatic embryos and embryogenenic calli

## C=C1C[C@]23C[C@@]1(O)CC[C@H]2[C@@]12C=C[C@H](O)[C@@](C)(C(=O)O1)[C@H]2[C@@H]3C(=O)O [GA3, gibberellic acid]
[3]; [6]
  Hypocotyl Extension %: 30%
  Root Growth %: 53%
  Viable Germination SE %: 30%
  Hypocotyl Extension SE Count: 16
  Root Growth SE Count: 16
  Viable Germination SE Count: 9
[3]; [7]
  Hypocotyl Extension %: 44%
  Root Growth %: 37%
  Viable Germination SE %: 5%
  Hypocotyl Extension SE Count: 16
  Root Growth SE Count: 11
  Viable Germination SE Count: 2
[3]; many media tested
  germination of somatic embryos: significantly improved germination in many media tested
[3]; [8]
  Hypocotyl Extension %: 32%
  Root Growth %: 43%
  Viable Germination SE %: 19%
  Hypocotyl Extension SE Count: 14
  Root Growth SE Count: 13
  Viable Germination SE Count: 6
[3]; [9]
  Hypocotyl Extension %: 26%
  Root Growth %: 47%
  Viable Germination SE %: 8%
  Hypocotyl Extension SE Count: 12
  Root Growth SE Count: 14
  Viable Germination SE Count: 2
[3]; [10]
  Hypocotyl Extension %: 34%
  Root Growth %: 27%
  Viable Germination SE %: 21%
  Hypocotyl Extension SE Count: 9
  Root Growth SE Count: 8
  Viable Germination SE Count: 7
[3]; [11]
  Hypocotyl Extension %: 26%
  Root Growth %: 53%
  Viable Germination SE %: 23%
  Hypocotyl Extension SE Count: 14
  Root Growth SE Count: 16
  Viable Germination SE Count: 6

## c1coc(CNc2ncnc3[nH]cnc23)c1 [Kinetin, kinetin]
[4]; Kinetin 0.05 mg/l
  TIISE (%) >5 SE: 15%
  TIISE (%) >10 SE: 0%
  TIISE (%) Total: 25%
  TISE (%): 35%
[4]; Kinetin 0.1 mg/l
  TIISE (%) >5 SE: 15%
  TIISE (%) >10 SE: 5%
  TIISE (%) Total: 30%
  TISE (%): 35%
[4]; Kinetin 0.2 mg/l
  TIISE (%) >5 SE: 15%
  TIISE (%) >10 SE: 0%
  TIISE (%) Total: 30%
  TISE (%): 40%
[4]; Kinetin 0.5 mg/l
  TIISE (%) >5 SE: 10%
  TIISE (%) >10 SE: 5%
  TIISE (%) Total: 20%
  TISE (%): 25%
[4]; Kinetin 1 mg/l
  TIISE (%) >5 SE: 0%
  TIISE (%) >10 SE: 0%
  TIISE (%) Total: 15%
  TISE (%): 45%
[4]; kinetin 0-1 mg/l
  TIISEs formation: appeared to negatively affect TIISEs formation
  induction of TISEs: played little role in induction of TISEs

## O=[N+]([O-])[O-].[K+] [KNO3]
[2]; increase in KNO3 in modified DGA solid medium
  embryo differentiation and maturation: favored embryo differentiation but inhibited maturation
[5]
  maintenance of liquid suspension culture: facilitated maintaining the liquid suspension culture at early stages of embryogenesis
